PMC9501810, “Bitter Peptides YFYPEL, [sequence], and [sequence], Released during Gastric Digestion of Casein, Stimulate Mechanisms of Gastric Acid Secretion via Bitter Taste Receptors TAS2R16 and TAS2R38” (Journal of Agricultural and Food Chemistry, 2022)
“And” between values parts separate entries of the source, which are not always exact repeats. Equal entries are not always repeated.

Assays:
TAS2R10 = experiment: RT-qPCR gene expression of TAS2R10 in HGT-1 cells; type: cell-based, human; settings: VAPFPEVF 17.5 µM, YFYPEL 0.03 µM, YQEPVLGPVRGPFPIIV 0.4 µM, normalized to PPIA and GAPDH and untreated cells, mean, n = 3–5
Procedure: For mRNA expression analysis, 800,000 cells were seeded in a T25 cell culture flask (25 cm^2) 1 day before the experiment. After incubation with 17.5 μM […], 0.03 μM YFYPEL, or 0.4 μM […] for 15, 30, 60, and 120 min, RNA was isolated using the peqGOLD RNA Kit (VWR Peqlab, USA) following the manufacturer’s protocol. Determination of RNA concentration (A260/A280 between 2.03 and 2.09) was performed on a NanoDrop One^c (Thermo Fisher Scientific Inc., USA). RNA integrity number (RIN 9.9–10.0, version 2.6, assay class Eukaryote Total RNA Nano) was analyzed using a 2100 Bioanalyzer (Agilent Technologies, USA). Removal of gDNA and synthesis of cDNA were performed using the iScript gDNA Clear cDNA Synthesis Kit (BioRad, Feldkirchen, Germany) following the manufacturer’s protocol. Real-time-qPCR (RT-qPCR) was performed with 50 ng cDNA amplified with SsoAdvanced Universal SYBR Green Supermix (Bio-Rad Laboratories, Inc., USA). The sequences of the forward and reverse primers of the 25 TAS2Rs were taken from Liszt et al.([13]) (Supporting Information Table-SI 3). Verified primers for the TAS1Rs (TAS1R1: qHsaCID0013443; TAS1R2: qHsaCID0016106; TAS1R3: qHsaCED0002321) and for MAPK1 (qHsaCEP0050000) were obtained from Bio-Rad Laboratories. PPIA[37] and GAPDH[38] were used as reference genes. The effects of the peptides on gene expression were analyzed in comparison to untreated control cells.

pepsin = experiment: In vitro gastric digestion of casein with targeted UHPLC-MS/MS-MRM quantitation of peptides; type: in vitro ADME, porcine; settings: 37 °C, n = 4; for degradation of the peptide during further in vitro gastric digestion: up to 6 h
Procedure: The in vitro digestion was based on the Nature protocol established by Brodkorb et al.([30]) For this, simulated salivary fluid (SSF, containing 15.1 mM KCl, 3.7 mM KH2PO4, 13.6 mM NaHCO3, 0.15 mM MgCl2(H2O)6, 0.06 mM (NH4)2CO3, 1.1 mM HCl, and 1.5 mM CaCl2(H2O)2) and simulated gastric fluid (SGF, containing 6.9 mM KCl, 0.9 mM KH2PO4, 25.0 mM NaHCO3, 47.2 mM NaCl, 0.12 mM MgCl2(H2O)6, 0.5 mM (NH4)2CO3, 15.6 mM HCl, and 0.15 mM CaCl2(H2O)2) were prepared. A total amount of 100 mg casein was suspended in 3 mL of SSF and incubated for 5 min at 37 °C in the tube rotator. After taking a sample (500 μL, t = 0 h), 2 mL of SGF was added and the pH was adjusted to 3 with 100 μL of HCl (1 M). After addition of 125 μL of pepsin solution (80,000 U/mL in 10 mM HCl), 275 μL of H2O was added to fill up to 5 mL. This was followed by further incubation at 37 °C in a tube rotator for 6 h. 500 μL of samples was taken at 0.25, 0.5, 0.75, 1, 2, 3, 4, 5, and 6 h, respectively. The samples were frozen in liquid nitrogen and stored at −80 °C until further analysis. For MS experiments, all samples were diluted 1:1 with 10% MeCN.
All targeted proteomics LC–MS/MS measurements were performed using a Sciex ExionLC AC (Sciex, Darmstadt, Germany) coupled to a 6500+ QTrap LC–MS/MS system (Sciex, Darmstadt, Germany) operating in the positive electrospray ionization mode. Data acquisition and instrumentation control were performed with AnalystTF software (v 1.7.1; Sciex, Darmstadt, Germany). Separation was performed using a 100 × 2.1 mm, 1.7 μm, Kinetex C18 column (Phenomenex, Aschaffenburg, Germany) with a guard column of the same type with 0.1% aqueous formic acid and acetonitrile containing 0.1% formic acid at a flow rate of 0.25 mL/min. The gradient was based on the following scheme: 0 min, 15% B; 7 min, 40% B; 7.5 min, 98% B; 10.5 min, 98% B; 10.8 min, 15% B; and 15 min, 15% B. The column oven temperature was set at 40 °C, and the injection volume was 1 μL per sample. For MS/MS measurements, the same parameters were used for all samples (ion spray voltage […], source temperature 450 °C, nebulizing gas 60 psi, and heating gas 30 psi). Nitrogen was set to 35 psi and served as a curtain gas to effectively dissolve the ions. To optimize the parameters DP, CE, and collision cell exit potential for each peptide and transition (Supporting Information Table-SI 2), standard solutions of the five synthesized peptides were injected directly into the MS ion source. Ionization parameters were optimized in positive ESI mode using AnalystTF software (v 1.7.1; Sciex, Darmstadt, Germany). For the preparation of the calibration curves, five peptides were dissolved individually in D2O (600 μL) and the concentration of the stock solutions was determined by qNMR.[35] For each peptide, seven calibration solutions (0.5, 1, 5, 10, 50, 100, and 200 μM) were diluted in 5% MeCN from these stock solutions. The data were analyzed using MultiQuant software (v 3.0.3; Sciex, Darmstadt, Germany).

degradation of the peptide during further in vitro gastric digestion (pepsin; SGF pH 3 with pepsin) | Substance | change in gene expression of TAS2R10 (TAS2R10; incubation 15 min) | change in gene expression of TAS2R10 (TAS2R10; incubation 30 min) | change in gene expression of TAS2R10 (TAS2R10; incubation 60 min) [fold change] | change in gene expression of TAS2R10 (TAS2R10; incubation 120 min) [fold change] | final concentration after 6 h of in vitro digestion (pepsin; 100 mg casein, SGF pH 3 with pepsin, 6 h, mean) [µM] | highest concentration released during in vitro digestion (pepsin; 100 mg casein, SSF then SGF pH 3 with pepsin, 0–6 h, mean)
no noticeable degradation | YFYPEL [bitter casein peptide αS1-CN144–149] | 0.64 fold change | 0.41 fold change and 0.41 ± 0.05 fold change | 0.72 | 0.90 |  | 
no noticeable degradation | VAPFPEVF [bitter casein peptide αS1-CN25–32] | 0.34 fold change and 0.34 ± 0.05 fold change | 0.76 fold change | 0.91 | 1.15 |  | 

Substance | degradation of the peptide during further in vitro gastric digestion (pepsin; SGF pH 3 with pepsin) | change in gene expression of TAS2R10 (TAS2R10; incubation 15 min) | change in gene expression of TAS2R10 (TAS2R10; incubation 30 min) | change in gene expression of TAS2R10 (TAS2R10; incubation 60 min) [fold change] | change in gene expression of TAS2R10 (TAS2R10; incubation 120 min) [fold change] | final concentration after 6 h of in vitro digestion (pepsin; 100 mg casein, SGF pH 3 with pepsin, 6 h, mean) [µM] | highest concentration released during in vitro digestion (pepsin; 100 mg casein, SSF then SGF pH 3 with pepsin, 0–6 h, mean)
YQEPVLGPVRGPFPIIV [bitter casein peptide βA1/A2-CN193–209] | continuous cleavage over the 6 h | 0.52 fold change and 0.52 ± 0.06 fold change | 0.78 fold change | 0.90 | 1.04 | 22.5 | up to 300.8 μM
